Common to all, as to assay: relative viability (nuclei count vs DMSO), 5 days (fraction); higher = more cells survive
Compound in experiment [1]: C[C@@H](C(=O)N[C@@H](C1CCCCC1)C(=O)N2CCC[C@H]2C(=O)N[C@@H]3[C@@H](CC4=CC=CC=C34)OCC#CC#CCO[C@@H]5CC6=CC=CC=C6[C@@H]5NC(=O)[C@@H]7CCCN7C(=O)[C@H](C8CCCCC8)NC(=O)[C@H](C)NC)NC [AZD5582] + Cc1nc(Nc2ncc(C(=O)Nc3c(C)cccc3Cl)s2)cc(N2CCN(CCO)CC2)n1 [Dasatinib] (partner 0.075 µM)
The gist of the method:
(§1)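 A single step with final 0.05% Triton X-100, 1% formaldehyde and 1 ug/ml Hoechst fixed the cells and stained nuclei 5 days after treatment. Lung cancer cell lines in 1536-well plates had been treated by pin tool the day after seeding with one drug alone or a fixed anchor-drug dose plus five library-drug doses (not always all listed) in √10 steps, and nuclei were counted on 4× images. Relative viability is the ratio of nuclei in treated wells to nuclei in vehicle wells, taken as the median of duplicate plates.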

Compound in experiment [2]: Cn1nnc2c(C(N)=O)ncn2c1=O [Temozolomide] + CS(=O)(=O)CCNCc1ccc(-c2ccc3ncnc(Nc4ccc(OCc5cccc(F)c5)c(Cl)c4)c3c2)o1 [Lapatinib] (partner 2 µM)
The gist of the method:
as §1

Compound in experiment [3]: C[C@@H](C(=O)N[C@@H](C1CCCCC1)C(=O)N2CCC[C@H]2C(=O)N[C@@H]3[C@@H](CC4=CC=CC=C34)OCC#CC#CCO[C@@H]5CC6=CC=CC=C6[C@@H]5NC(=O)[C@@H]7CCCN7C(=O)[C@H](C8CCCCC8)NC(=O)[C@H](C)NC)NC [AZD5582] + Nc1nc2[nH]cc(CCc3ccc(C(=O)N[C@@H](CCC(=O)O)C(=O)O)cc3)c2c(=O)[nH]1 [Pemetrexed] (partner 0.2 µM)
The gist of the method:
as §1

Compound in experiment [4]: C[C@@H](C(=O)N[C@@H](C1CCCCC1)C(=O)N2CCC[C@H]2C(=O)N[C@@H]3[C@@H](CC4=CC=CC=C34)OCC#CC#CCO[C@@H]5CC6=CC=CC=C6[C@@H]5NC(=O)[C@@H]7CCCN7C(=O)[C@H](C8CCCCC8)NC(=O)[C@H](C)NC)NC [AZD5582] + C[C@]1(O)C[C@@H](c2nc(-c3ccc4ccc(-c5ccccc5)nc4c3)c3c(N)nccn32)C1 [Linsitinib] (partner 1 µM)
The gist of the method: as §1

For the cell line LOU-NH91, the relative viability worked out at 0.553 in experiment [1] (first compound 0.001581 µM); 0.565 in experiment [1] (first compound 0.005 µM); 0.468 in experiment [1] (first compound 0.01581 µM); 0.657 in experiment [1] (first compound 0.05 µM); 0.747 in experiment [2] (first compound 0.2 µM); 0.782 in experiment [2] (first compound 0.6325 µM). Also, the relative viability is 0.791 in experiment [2] (first compound 2 µM); 0.732 in experiment [2] (first compound 6.325 µM); 0.763 in experiment [2] (first compound 20 µM); 0.341 in experiment [3] (first compound 0.001581 µM); 0.367 in experiment [3] (first compound 0.005 µM); 0.367 in experiment [3] (first compound 0.01581 µM). Besides, the relative viability in experiment [3] (first compound 0.05 µM) came out at 0.408; in experiment [4] (first compound 0.001581 µM), 0.964; in experiment [4] (first compound 0.005 µM) it was 0.924; in experiment [4] (first compound 0.01581 µM), 0.997; in experiment [4] (first compound 0.05 µM), 1.04.
Consider NCI-H1355, for which the relative viability in experiment [1] (first compound 0.001581 µM) worked out at 0.638; in experiment [1] (first compound 0.005 µM), 0.749; in experiment [1] (first compound 0.01581 µM), 0.583; in experiment [1] (first compound 0.05 µM), 0.719; in experiment [2] (first compound 0.2 µM), 1.06; in experiment [2] (first compound 0.6325 µM), 1.01. Besides, the relative viability stood at 0.974 in experiment [2] (first compound 2 µM); 1.02 in experiment [2] (first compound 6.325 µM); 0.99 in experiment [2] (first compound 20 µM); 0.942 in experiment [3] (first compound 0.001581 µM); 1 in experiment [3] (first compound 0.005 µM); 0.986 in experiment [3] (first compound 0.01581 µM). Further, the relative viability in experiment [3] (first compound 0.05 µM) was 0.815; in experiment [4] (first compound 0.001581 µM), 0.774; in experiment [4] (first compound 0.005 µM) it was 0.829; in experiment [4] (first compound 0.01581 µM), 0.788; in experiment [4] (first compound 0.05 µM) it was 0.96.
For SK-LU-1, the relative viability in experiment [1] (first compound 0.001581 µM) was determined as 0.147; in experiment [1] (first compound 0.005 µM), 0.0852; in experiment [1] (first compound 0.01581 µM) it was 0.174; in experiment [1] (first compound 0.05 µM) it was 0.0634; in experiment [2] (first compound 0.2 µM), 1.08; in experiment [2] (first compound 0.6325 µM) it was 0.906. In addition, the relative viability in experiment [2] (first compound 2 µM) came to 0.803; in experiment [2] (first compound 6.325 µM) it was 0.377; in experiment [2] (first compound 20 µM), 0.407; in experiment [3] (first compound 0.001581 µM), 0.73; in experiment [3] (first compound 0.005 µM), 0.5; in experiment [3] (first compound 0.01581 µM), 0.978. In addition, the relative viability turned out to be 0.285 in experiment [3] (first compound 0.05 µM); 0.613 in experiment [4] (first compound 0.001581 µM); 0.495 in experiment [4] (first compound 0.005 µM); 1.23 in experiment [4] (first compound 0.01581 µM); 0.273 in experiment [4] (first compound 0.05 µM).
Turning to LK-2, the relative viability in experiment [1] (first compound 0.001581 µM) was determined as 0.209; in experiment [1] (first compound 0.005 µM), 0.36; in experiment [1] (first compound 0.01581 µM), 0.322; in experiment [1] (first compound 0.05 µM), 0.266; in experiment [2] (first compound 0.2 µM), 1.01; in experiment [2] (first compound 0.6325 µM), 1.04. In addition, the relative viability in experiment [2] (first compound 2 µM) was 0.796; in experiment [2] (first compound 6.325 µM), 0.611; in experiment [2] (first compound 20 µM), 0.392; in experiment [3] (first compound 0.001581 µM) it was 0.199; in experiment [3] (first compound 0.005 µM) it was 0.25; in experiment [3] (first compound 0.05 µM), 0.256. In addition, the figures for the relative viability in experiment [4] (first compound 0.005 µM), in experiment [4] (first compound 0.01581 µM) and in experiment [4] (first compound 0.05 µM) were 0.685, 0.643 and 0.795, respectively.
With NCI-H650, the relative viability came to 0.447 in experiment [1] (first compound 0.001581 µM); 0.418 in experiment [1] (first compound 0.005 µM); 0.305 in experiment [1] (first compound 0.01581 µM); 0.308 in experiment [1] (first compound 0.05 µM); 1.02 in experiment [2] (first compound 0.2 µM); 0.888 in experiment [2] (first compound 0.6325 µM). Further, the relative viability in experiment [2] (first compound 2 µM) was found to be 0.995; in experiment [2] (first compound 6.325 µM), 1.03; in experiment [2] (first compound 20 µM), 1.07; in experiment [3] (first compound 0.001581 µM) it was 0.843; in experiment [3] (first compound 0.005 µM) it was 0.959; in experiment [3] (first compound 0.01581 µM), 0.605. For the same cell line, the relative viability in experiment [3] (first compound 0.05 µM) was 0.644; in experiment [4] (first compound 0.001581 µM), 0.649; in experiment [4] (first compound 0.005 µM), 0.758; in experiment [4] (first compound 0.01581 µM), 0.431; in experiment [4] (first compound 0.05 µM) it was 0.564.
Regarding NCI-H2085, the relative viability in experiment [1] (first compound 0.001581 µM) was found to be 0.265; in experiment [1] (first compound 0.005 µM), 0.366; in experiment [1] (first compound 0.01581 µM) it was 0.282; in experiment [1] (first compound 0.05 µM), 0.355; in experiment [2] (first compound 0.2 µM), 0.75; in experiment [2] (first compound 0.6325 µM), 0.751. Besides, the relative viability in experiment [2] (first compound 2 µM) stood at 0.75; in experiment [2] (first compound 6.325 µM), 0.779; in experiment [2] (first compound 20 µM) it was 0.778; in experiment [3] (first compound 0.001581 µM) it was 0.999; in experiment [3] (first compound 0.005 µM) it was 1.07; in experiment [3] (first compound 0.01581 µM) it was 0.482. For the same cell line, the relative viability came out at 0.848 in experiment [3] (first compound 0.05 µM); 0.755 in experiment [4] (first compound 0.001581 µM); 0.9 in experiment [4] (first compound 0.005 µM); 0.891 in experiment [4] (first compound 0.01581 µM); 0.938 in experiment [4] (first compound 0.05 µM).
As to RERF-LC-KJ, the relative viability is 0.723 in experiment [1] (first compound 0.01581 µM); 0.696 in experiment [1] (first compound 0.05 µM); 0.819 in experiment [2] (first compound 0.2 µM); 0.922 in experiment [2] (first compound 0.6325 µM); 0.909 in experiment [2] (first compound 2 µM); 0.767 in experiment [2] (first compound 6.325 µM). Besides, the relative viability amounted to 0.846 in experiment [2] (first compound 20 µM); 0.154 in experiment [3] (first compound 0.001581 µM); 0.235 in experiment [3] (first compound 0.005 µM); 0.457 in experiment [3] (first compound 0.01581 µM); 0.289 in experiment [3] (first compound 0.05 µM); 0.525 in experiment [4] (first compound 0.001581 µM). In addition, the relative viability in experiment [4] (first compound 0.005 µM) is 0.481; in experiment [4] (first compound 0.01581 µM), 0.879; in experiment [4] (first compound 0.05 µM), 0.464.
NCI-H727: the relative viability worked out at 0.317 in experiment [1] (first compound 0.001581 µM); 0.319 in experiment [1] (first compound 0.005 µM); 0.505 in experiment [1] (first compound 0.01581 µM); 0.274 in experiment [1] (first compound 0.05 µM); 0.907 in experiment [2] (first compound 0.2 µM); 0.804 in experiment [2] (first compound 0.6325 µM). The relative viability in experiment [2] (first compound 2 µM) is 0.865; in experiment [2] (first compound 6.325 µM), 0.665; in experiment [2] (first compound 20 µM), 0.693; in experiment [4] (first compound 0.001581 µM) it was 0.309; in experiment [4] (first compound 0.005 µM), 0.253; in experiment [4] (first compound 0.01581 µM) it was 0.465. Also, the relative viability in experiment [4] (first compound 0.05 µM) turned out to be 0.258.
Consider NCI-H1651, for which the relative viability worked out at 0.428 in experiment [1] (first compound 0.001581 µM); 0.478 in experiment [1] (first compound 0.005 µM); 0.552 in experiment [1] (first compound 0.05 µM); 0.969 in experiment [2] (first compound 0.2 µM); 0.881 in experiment [2] (first compound 0.6325 µM); 0.876 in experiment [2] (first compound 2 µM). The relative viability in experiment [2] (first compound 6.325 µM) was found to be 0.754; in experiment [2] (first compound 20 µM), 0.934; in experiment [3] (first compound 0.001581 µM), 0.507; in experiment [3] (first compound 0.005 µM), 0.562; in experiment [3] (first compound 0.01581 µM), 0.52; in experiment [3] (first compound 0.05 µM), 0.638. For the same cell line, the relative viability was determined as 0.894 in experiment [4] (first compound 0.001581 µM), 1.06 in experiment [4] (first compound 0.005 µM), 1.01 in experiment [4] (first compound 0.01581 µM) and 1.21 in experiment [4] (first compound 0.05 µM).

(Values after the supplement of paper PMC10307832.)
